{"source": "patent US4524068A", "about": "“Cyclodextrin inclusion complex of piperonyl butoxide” (priority 1982, dated 1985)", "key": {"[1]": {"tested_on": "Drosophila melanogaster Meigen (vinegar midge)", "assay": "24 hours' mortality of tetrametrin on midges pre-fed with piperonyl butoxide or its complex (Example 8)", "assay_type": "in vivo", "conditions": "pre-fed with synergist", "experimental": "The emulsion and suspension also contain 5% of sucrose.\nNext day the 24 hours' mortality is determined."}, "[2]": {"conditions": "cited from earlier work"}, "physchem": {"assay": "physchem", "conditions": "water"}, "Sitophilus granarius [3]": {"tested_on": "Sitophilus granarius", "assay": "24 hours' mortality of tetrametrin and cinerin with synergist (Example 10)", "conditions": "for mortality at 10 mg/disk: Sitophilus granarius, 24 h, read-out: 24 hours' mortality, Paralitical and killed insects", "experimental": "(§1) As insecticide tetrametrin and cinerin I are used. The insecticidal effect is tested on 2-4 weeks' old Sitophilus granarius (Corn-Weevil) imago.\n(§2) Piperonyl butoxide and the complex of piperonyl butoxide and cyclodextrin are applied as described in Example 9. The ratio of pyrethroide and synergistic agent amounts to 1:4 in all cases. The efficiency of insecticidal effect is proportional to the value of the 24 hours' mortality (killing effect)."}, "Sitophilus granarius [4]": {"tested_on": "Sitophilus granarius", "assay": "Knock-down effect of tetrametrin and cinerin I with synergist (Example 10)", "assay_type": "in vivo, Sitophilus granarius (Corn-Weevil)", "conditions": "pyrethroide:synergistic agent 1:4", "experimental": "as §1, §2"}}}
{"smiles": "CCCCOCCOCCOCc1cc2c(cc1CCC)OCO2", "note": "[piperonyl butoxide, 5-{[2-(2-butoxy-ethoxy)-ethoxy]-methyl}-6-propyl-1,3-benzodioxole]", "values": [{"measurement": "Mortality (24 hours mortality; killing effect)", "setting": "[1]; tetrametrin dose 0.078 mg/disk", "result": 0, "unit": "%"}, {"measurement": "Mortality (24 hours mortality; killing effect)", "setting": "[1]; tetrametrin dose 0.156 mg/disk", "result": 8, "unit": "%"}, {"measurement": "Mortality (24 hours mortality; killing effect)", "setting": "[1]; tetrametrin dose 0.313 mg/disk", "result": 34, "unit": "%"}, {"measurement": "Mortality (24 hours mortality; killing effect)", "setting": "[1]; tetrametrin dose 0.625 mg/disk", "result": 48, "unit": "%"}, {"measurement": "Mortality (24 hours mortality; killing effect)", "setting": "[1]; tetrametrin dose 1.250 mg/disk", "result": 100, "unit": "%"}, {"measurement": "Mortality (24 hours mortality; killing effect)", "setting": "[1]; tetrametrin dose 5.000 mg/disk", "result": 100, "unit": "%"}, {"measurement": "solubility in organic solvents", "setting": "[2]; organic solvents", "result": "soluble in organic solvents"}, {"measurement": "solubility in water", "setting": "[2]; water", "result": "substantially insoluble in water"}, {"measurement": "solubility at 1 h", "setting": "physchem", "result": 66, "unit": "µg/mL"}]}
{"smiles": "C/C=C\\CC1=C(C)[C@@H](OC(=O)[C@@H]2[C@@H](C=C(C)C)C2(C)C)CC1=O", "note": "[cinerin]", "values": [{"measurement": "mortality at 10 mg/disk", "setting": "Sitophilus granarius [3]", "result": 31, "unit": "%"}, {"measurement": "24 hours' mortality; Paralitical and killed insects", "setting": "Sitophilus granarius [3]; pyrethroide dose 1.250 mg/disk, pyrethroid:synergist 1:4", "result": 0, "unit": "%"}, {"measurement": "Knock-down effect", "setting": "Sitophilus granarius [4]; 90 minutes", "result": 6}, {"measurement": "Knock-down effect", "setting": "Sitophilus granarius [4]; 170 minutes", "result": 9}, {"measurement": "Knock-down effect", "setting": "Sitophilus granarius [4]; 210 minutes", "result": 8}, {"measurement": "Knock-down effect", "setting": "Sitophilus granarius [4]; 300 minutes", "result": 2}]}
{"smiles": "CC(C)=CC1C(C(=O)OCN2C(=O)C3=C(CCCC3)C2=O)C1(C)C", "note": "(centres unmarked) [tetrametrin]", "values": [{"measurement": "mortality at 10 mg/disk", "setting": "Sitophilus granarius [3]", "result": 41, "unit": "%"}, {"measurement": "Knock-down effect", "setting": "Sitophilus granarius [4]; 90 minutes", "result": 0}, {"measurement": "Knock-down effect", "setting": "Sitophilus granarius [4]; 170 minutes", "result": 9}, {"measurement": "Knock-down effect", "setting": "Sitophilus granarius [4]; 210 minutes", "result": 9}, {"measurement": "Knock-down effect", "setting": "Sitophilus granarius [4]; 300 minutes", "result": 6}]}
